Values after ≈ are worked out from the molar mass of the structure shown.

One experiment has as its system P. aeruginosa CDC-0090. In words: microbe, parasite or virus in culture. The format is cell-based. Particulars: Pseudomonas aeruginosa, CDC0090, read-out: Minimum inhibitory concentration, P. aeruginosa CDC-0090.
The target in experiment [1] is T1, PBP3 from Acinetobacter baumannii (ATCC 19606) (Acinetobacter baumannii, UniProt A0ABX6CK25).
T1 sequence (A0ABX6CK25 64-610): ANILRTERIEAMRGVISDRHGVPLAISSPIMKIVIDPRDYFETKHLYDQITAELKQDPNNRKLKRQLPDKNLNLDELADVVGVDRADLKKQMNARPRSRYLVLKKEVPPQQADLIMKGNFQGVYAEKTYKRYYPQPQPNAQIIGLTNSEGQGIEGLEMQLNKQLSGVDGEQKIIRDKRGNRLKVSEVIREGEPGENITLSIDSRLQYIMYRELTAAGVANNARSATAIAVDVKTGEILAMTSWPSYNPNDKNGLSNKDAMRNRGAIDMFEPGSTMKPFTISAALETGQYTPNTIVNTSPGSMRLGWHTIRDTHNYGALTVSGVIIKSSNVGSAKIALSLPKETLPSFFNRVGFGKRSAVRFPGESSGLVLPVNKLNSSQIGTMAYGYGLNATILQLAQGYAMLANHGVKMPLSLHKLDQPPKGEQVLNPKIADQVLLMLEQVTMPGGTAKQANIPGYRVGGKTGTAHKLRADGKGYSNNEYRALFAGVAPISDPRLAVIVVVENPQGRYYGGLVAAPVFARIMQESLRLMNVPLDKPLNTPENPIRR
In words: Bocillin-FL fluorescence polarization competition binding, A. baumannii PBP3. Particulars: fluorescence polarization competition binding assay using Bocillin-FL; read-out: A. baumannii PBP3 Potency. In a few lines:
(§1)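 Purified PBPs pre-incubated with inhibitor (E. coli PBP3 1.5 μM, 30 min; P. aeruginosa PBP3 0.75 μM, A. baumannii PBP1a 1 μM and PBP3 0.2 μM, 15 min), then Bocillin-FL 0.1 μM (0.05 μM for PBP1a) added; FP read up to 60 min. EC50 = concentration halving bound Bocillin-FL.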
For orientation: Polarisation of emitted light reports the rotation of a fluorescent probe.

The subject of a further experiment is A. baumannii ATCC 17978. In words: microbe, parasite or virus in culture. The experiment is classed as cell-based. Conditions: Acinetobacter baumannii, ATCC17978, read-out: MIC, A. baumannii ATCC 17978.
For the next experiment, the system named is A. baumannii CDC-0045. In words: microbe, parasite or virus in culture. The format is cell-based. Particulars: Acinetobacter baumannii, CDC0045, read-out: MIC, A. baumannii CDC-0045.
In a further experiment the test system is A. baumannii CDC-0083. In words: microbe, parasite or virus in culture. The format is cell-based. Conditions: Acinetobacter baumannii, CDC0083, read-out: MIC, A. baumannii CDC-0083.
Experiment [2] concerns B. thailandensis ATCC 700388. In words: microbe, parasite or virus in culture. The format is cell-based. Conditions: Burkholderia thailandensis, ATCC700388, read-out: Minimum inhibitory concentration (MIC), B. thailandensis ATCC 700388.
Experiment [3] concerns the target T2, PBP3 from Escherichia coli (K-12) (Escherichia coli, UniProt P0AD68).
T2 construct: made in house
In words: Bocillin-FL fluorescence polarization competition binding, E. coli PBP3. In a few lines:
as §1

The next experiment has as its system A. baumannii 1258916. In words: microbe, parasite or virus in culture. The experiment is classed as cell-based, Acinetobacter baumannii. Particulars: Acinetobacter baumannii, 1258916, read-out: MIC, A. baumannii 1258916.
Experiment [4] deals with P. aeruginosa (ΔmexAB-oprM). In words: Broth microdilution MIC in iron-depleted CAMHB (IDM). The experiment is classed as cell-based. Conditions: Pseudomonas aeruginosa; iron-depleted CAMHB (IDM); […]; read-out: Minimum inhibitory concentration, P. aeruginosa ΔmexAB-oprM.
The next experiment deals with P. aeruginosa CDC-0054. In words: microbe, parasite or virus in culture. Conditions: Pseudomonas aeruginosa, CDC0054, read-out: Minimum inhibitory concentration, P. aeruginosa CDC-0054. The experiment is classed as cell-based.
Experiment [5] addresses T3, PBP3 from Pseudomonas aeruginosa (PAO1) (Pseudomonas aeruginosa, UniProt G3XD46).
T3 construct: made in house
In words: Bocillin-FL fluorescence polarization competition binding, P. aeruginosa PBP3. Particulars: Binding affinity to P. aeruginosa PBP3; fluorescence polarization competition binding assay using Bocillin-FL; read-out: P. aeruginosa PBP3 Potency. In a few lines: as §1

T2 sequence (P0AD68 1-577): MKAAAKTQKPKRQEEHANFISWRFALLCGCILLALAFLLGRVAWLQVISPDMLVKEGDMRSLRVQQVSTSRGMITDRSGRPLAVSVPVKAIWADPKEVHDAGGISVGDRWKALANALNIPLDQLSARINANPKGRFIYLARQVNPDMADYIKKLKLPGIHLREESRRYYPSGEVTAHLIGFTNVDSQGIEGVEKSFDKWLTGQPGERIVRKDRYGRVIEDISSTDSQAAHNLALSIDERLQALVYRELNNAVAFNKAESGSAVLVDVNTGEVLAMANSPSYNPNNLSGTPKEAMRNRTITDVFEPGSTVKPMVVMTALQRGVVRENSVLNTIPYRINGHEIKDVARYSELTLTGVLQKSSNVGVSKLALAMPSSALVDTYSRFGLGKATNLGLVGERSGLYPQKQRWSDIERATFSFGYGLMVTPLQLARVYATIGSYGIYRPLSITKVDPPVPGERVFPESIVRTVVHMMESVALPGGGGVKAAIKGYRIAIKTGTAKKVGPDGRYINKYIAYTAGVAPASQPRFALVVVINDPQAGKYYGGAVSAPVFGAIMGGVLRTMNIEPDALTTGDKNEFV
T3 sequence (G3XD46 whole entry): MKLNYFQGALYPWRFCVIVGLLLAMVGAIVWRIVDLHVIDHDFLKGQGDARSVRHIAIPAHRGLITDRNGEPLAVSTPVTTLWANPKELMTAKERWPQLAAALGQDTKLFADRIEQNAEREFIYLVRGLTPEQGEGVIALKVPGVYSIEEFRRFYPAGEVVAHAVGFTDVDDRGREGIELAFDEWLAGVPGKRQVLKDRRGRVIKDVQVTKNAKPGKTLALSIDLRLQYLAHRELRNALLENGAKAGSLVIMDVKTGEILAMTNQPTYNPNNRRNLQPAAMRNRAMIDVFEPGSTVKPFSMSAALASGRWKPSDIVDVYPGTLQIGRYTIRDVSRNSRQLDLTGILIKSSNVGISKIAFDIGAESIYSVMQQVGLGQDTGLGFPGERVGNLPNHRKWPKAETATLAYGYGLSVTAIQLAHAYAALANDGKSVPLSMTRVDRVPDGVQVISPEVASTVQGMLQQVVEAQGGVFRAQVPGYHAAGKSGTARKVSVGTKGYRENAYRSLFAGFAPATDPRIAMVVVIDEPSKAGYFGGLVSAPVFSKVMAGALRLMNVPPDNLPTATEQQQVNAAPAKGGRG

As for `CN(CCCN1CCN(C(=O)NC(C(=O)N[C@H]2Cc3ccc(F)c(C(=O)O)c3OB2O)c2cc(F)c(O)c(O)c2Cl)C(=O)C1=O)C(=O)c1cccc(O)c1` (stereo partly drawn) [Example 310, (3R)-3-(2-(2-chloro-5-fluoro-3,4-dihydroxyphenyl)-2-(4-(3-(3-hydroxy-N-methylbenzamido)propyl)-2,3-dioxopiperazine-1-carboxamido)acetamido)-7-fluoro-2-hydroxy-3,4-dihydro-2H-benzo[e][1,2]oxaborinine-8-carboxylic acid], the MIC was 2 to 4 µg/mL (≈ 2.58 to 5.17 µM) with P. aeruginosa CDC-0090; < 1 µg/mL in the experiment on A. baumannii ATCC 17978; < 1 µg/mL with A. baumannii CDC-0045; < 1 µg/mL with A. baumannii CDC-0083; 2 to 4 µg/mL (≈ 2.58 to 5.17 µM) in experiment [2]; < 1 µg/mL in the experiment with A. baumannii 1258916. For the same molecule, the MIC (in experiment [4]; with P. aeruginosa CDC-0054) was < 1 µg/mL in each case. In addition, the IC50 in [1] and in experiment [5] was < 10 µM throughout. For the same molecule, in [3], the EC50 was < 10 µM.

With `O=C(NCCCN1CCN(C(=O)NC(C(=O)N[C@H]2Cc3ccc(F)c(C(=O)O)c3OB2O)c2cc(F)c(O)c(O)c2Cl)C(=O)C1=O)c1ccncc1F` (stereo partly drawn) [Example 400, (3R)-3-(2-(2-chloro-5-fluoro-3,4-dihydroxyphenyl)-2-(4-(3-(3-fluoroisonicotinamido)propyl)-2,3-dioxopiperazine-1-carboxamido)acetamido)-7-fluoro-2-hydroxy-3,4-dihydro-2H-benzo[e][1,2]oxaborinine-8-carboxylic acid], the MIC with P. aeruginosa CDC-0090 is 2 to 4 µg/mL (≈ 2.62 to 5.24 µM); in the experiment on A. baumannii ATCC 17978 it was < 1 µg/mL; in the experiment on A. baumannii CDC-0045, < 1 µg/mL; in the experiment on A. baumannii CDC-0083, 2 to 4 µg/mL (≈ 2.62 to 5.24 µM); in experiment [2] it was 2 to 4 µg/mL (≈ 2.62 to 5.24 µM); in the experiment with A. baumannii 1258916, 2 to 4 µg/mL (≈ 2.62 to 5.24 µM). The MIC (in experiment [4]; in the experiment with P. aeruginosa CDC-0054) was < 1 µg/mL throughout. Moreover, the IC50 in [1] and in experiment [5] was < 10 µM in each case. Besides, the EC50 in experiment [3] was < 10 µM.

`O=C(NCCCN1CCN(C(=O)NC(C(=O)N[C@H]2Cc3ccc(F)c(C(=O)O)c3OB2O)c2cc(F)c(O)c(O)c2Cl)C(=O)C1=O)c1c(F)cncc1F` (stereo partly drawn) [Example 402, (3R)-3-(2-(2-chloro-5-fluoro-3,4-dihydroxyphenyl)-2-(4-(3-(3,5-difluoroisonicotinamido)propyl)-2,3-dioxopiperazine-1-carboxamido)acetamido)-7-fluoro-2-hydroxy-3,4-dihydro-2H-benzo[e][1,2]oxaborinine-8-carboxylic acid]: the MIC was < 1 µg/mL with P. aeruginosa CDC-0090; < 1 µg/mL in the experiment on A. baumannii ATCC 17978; < 1 µg/mL in the experiment on A. baumannii CDC-0045; 2 to 4 µg/mL (≈ 2.56 to 5.12 µM) in the experiment with A. baumannii CDC-0083; 2 to 4 µg/mL (≈ 2.56 to 5.12 µM) in [2]; 2 to 4 µg/mL (≈ 2.56 to 5.12 µM) in the experiment with A. baumannii 1258916. In addition, the MIC (in [4]; in the experiment with P. aeruginosa CDC-0054) was < 1 µg/mL in each case. In addition, the IC50 in experiment [1] and in [5] was < 10 µM in each case. Moreover, the concentration for a half-maximal effect (EC50) in experiment [3] is < 10 µM.

As for `O=C(NCCCN1CCN(C(=O)NC(C(=O)N[C@H]2Cc3ccc(F)c(C(=O)O)c3OB2O)c2cc(F)c(O)c(O)c2Cl)C(=O)C1=O)c1c(F)cncc1Cl` (stereo partly drawn) [Example 403, (3R)-3-(2-(2-chloro-5-fluoro-3,4-dihydroxyphenyl)-2-(4-(3-(3-chloro-5-fluoroisonicotinamido)propyl)-2,3-dioxopiperazine-1-carboxamido)acetamido)-7-fluoro-2-hydroxy-3,4-dihydro-2H-benzo[e][1,2]oxaborinine-8-carboxylic acid], the MIC in the experiment on P. aeruginosa CDC-0090 was 2 to 4 µg/mL (≈ 2.51 to 5.02 µM); in the experiment with A. baumannii ATCC 17978, < 1 µg/mL; in the experiment with A. baumannii CDC-0045 it was < 1 µg/mL; with A. baumannii CDC-0083, 2 to 4 µg/mL (≈ 2.51 to 5.02 µM); in [2], 2 to 4 µg/mL (≈ 2.51 to 5.02 µM); in the experiment on A. baumannii 1258916 it was 2 to 4 µg/mL (≈ 2.51 to 5.02 µM). Moreover, the MIC (in experiment [4]; in the experiment with P. aeruginosa CDC-0054) was < 1 µg/mL in each case. Besides, the IC50 in experiment [1] and in [5] was < 10 µM throughout. The concentration giving a half-maximal response (EC50) in experiment [3] was < 10 µM.

With `O=C(NCCCN1CCN(C(=O)NC(C(=O)N[C@H]2Cc3ccc(F)c(C(=O)O)c3OB2O)c2cc(F)c(O)c(O)c2Cl)C(=O)C1=O)c1cc(F)c(F)c(O)c1F` (stereo partly drawn) [Example 404, (3R)-3-(2-(2-chloro-5-fluoro-3,4-dihydroxyphenyl)-2-(2,3-dioxo-4-(3-(2,4,5-trifluoro-3-hydroxybenzamido)propyl)piperazine-1-carboxamido)acetamido)-7-fluoro-2-hydroxy-3,4-dihydro-2H-benzo[e][1,2]oxaborinine-8-carboxylic acid], the MIC is 2 to 4 µg/mL (≈ 2.46 to 4.91 µM) in the experiment with P. aeruginosa CDC-0090; < 1 µg/mL in the experiment with A. baumannii ATCC 17978; < 1 µg/mL in the experiment on A. baumannii CDC-0045; > 128 µg/mL in the experiment on A. baumannii CDC-0083; 2 to 4 µg/mL (≈ 2.46 to 4.91 µM) in experiment [2]; 2 to 4 µg/mL (≈ 2.46 to 4.91 µM) in the experiment with A. baumannii 1258916. For the same molecule, the MIC (in [4]; in the experiment with P. aeruginosa CDC-0054) was < 1 µg/mL in each case. Moreover, the IC50 in experiment [1] and in experiment [5] was < 10 µM throughout. In [3], the EC50 is < 10 µM.

`O=C(NCCCN1CCN(C(=O)NC(C(=O)N[C@H]2Cc3ccc(F)c(C(=O)O)c3OB2O)c2cc(F)c(O)c(O)c2Cl)C(=O)C1=O)c1cccc(O)c1F` (stereo partly drawn) [Example 406, (3R)-3-(2-(2-chloro-5-fluoro-3,4-dihydroxyphenyl)-2-(4.-(3-(2-fluoro-3-hydroxybenzamido)propyl)-2,3-dioxopiperazine-1-carboxamido)acetamido)-7-fluoro-2-hydroxy-3,4-dihydro-2H-benzo[e][1,2]oxaborinine-8-carboxylic acid]: the MIC with P. aeruginosa CDC-0090 is < 1 µg/mL; with A. baumannii ATCC 17978, < 1 µg/mL; in the experiment on A. baumannii CDC-0045, < 1 µg/mL; in the experiment with A. baumannii CDC-0083, < 1 µg/mL; in experiment [2], 2 to 4 µg/mL (≈ 2.57 to 5.14 µM); in the experiment with A. baumannii 1258916, 2 to 4 µg/mL (≈ 2.57 to 5.14 µM). In addition, the MIC (in experiment [4]; with P. aeruginosa CDC-0054) was < 1 µg/mL in each case. For the same molecule, the IC50 in [1] and in experiment [5] was < 10 µM each time. Besides, in experiment [3], the EC50 was < 10 µM.

As to `O=C(NCCCN1CCN(C(=O)NC(C(=O)N[C@H]2Cc3ccc(F)c(C(=O)O)c3OB2O)c2cc(F)c(O)c(O)c2Cl)C(=O)C1=O)c1cc(O)ccc1F` (stereo partly drawn) [Example 407, (3R)-3-(2-(2-chloro-5-fluoro-3,4-dihydroxyphenyl)-2-(4-(3-(2-fluoro-5-hydroxybenzamido)propyl)-2,3-dioxopiperazine-1-carboxamido)acetamido)-7-fluoro-2-hydroxy-3,4-dihydro-2H-benzo[e][1,2]oxaborinine-8-carboxylic acid], the MIC was < 1 µg/mL with P. aeruginosa CDC-0090; < 1 µg/mL with A. baumannii ATCC 17978; < 1 µg/mL with A. baumannii CDC-0045; < 1 µg/mL in the experiment with A. baumannii CDC-0083; 2 to 4 µg/mL (≈ 2.57 to 5.14 µM) in [2]; 2 to 4 µg/mL (≈ 2.57 to 5.14 µM) with A. baumannii 1258916. Moreover, the MIC (in [4]; in the experiment with P. aeruginosa CDC-0054) was < 1 µg/mL each time. Besides, the IC50 in experiment [1] and in experiment [5] was < 10 µM each time. Also, the EC50 in experiment [3] was < 10 µM.

In the case of `O=C(NCCCN1CCN(C(=O)NC(C(=O)N[C@H]2Cc3ccc(F)c(C(=O)O)c3OB2O)c2cc(F)c(O)c(O)c2Cl)C(=O)C1=O)c1cc(O)ccc1Cl` (stereo partly drawn) [Example 408, (3R)-3-(2-(2-chloro-5-fluoro-3,4-dihydroxyphenyl)-2-(4-(3-(2-chloro-5-hydroxybenzamido)propyl)-2,3-dioxopiperazine-1-carboxamido)acetamido)-7-fluoro-2-hydroxy-3,4-dihydro-2H-benzo[e][1,2]oxaborinine-8-carboxylic acid], the MIC in the experiment with P. aeruginosa CDC-0090 was < 1 µg/mL; with A. baumannii ATCC 17978 it was < 1 µg/mL; with A. baumannii CDC-0045, < 1 µg/mL; with A. baumannii CDC-0083, < 1 µg/mL; in experiment [2] it was 2 to 4 µg/mL (≈ 2.52 to 5.04 µM); in the experiment with A. baumannii 1258916, 2 to 4 µg/mL (≈ 2.52 to 5.04 µM). Further, the MIC (in [4]; in the experiment with P. aeruginosa CDC-0054) was < 1 µg/mL in each case. Besides, the IC50 in [1] and in [5] was < 10 µM in each case. Moreover, the concentration for a half-maximal effect (EC50) in [3] is < 10 µM.

One may read the EC50 as the concentration at which the effect is half-maximal. Low values mean an effect from little substance, high ones a need for much substance.

Values taken from patent US20240270762A1, “PENICILLIN-BINDING PROTEIN INHIBITORS” (priority 2021, published 2024).
